Where a name gives a salt, the structure may show the parent alone.
Tests used:
HepG2 cells = test: in vitro glucose consumption in HepG2 cells (glucose oxidase method); type: cell-based; conditions: for Glucose consumption / Glucose consumption increased: HepG2 cells; for Glucose consumption: 24 h, x ± s, n = 8; for Glucose consumption increased: versus blank control group
Method: HepG2 cells with good growth state were selected, and were digested with trypsinase and EDTA (ethylene diamine tetraacetic acid) digestive juice. After digestion was complete, the resulting mixture was formulated with DMEM (Dulbecco's Modified Eagle Medium) having 10% Fetal bovine serum (FBS) into single cell suspension. The cells were seeded into 96 well plates, with 1*10^4 cells per well. Once the cell confluence reached 50%, the medium was changed to high glucose DMEM without serum, starvation cultured for 12 h. The cell supernatant was pipetted, and fresh high glucose DMEM with or without medications was added. The cells were divided into a blank control group, a 20-hydroxy-β-ecdysterone group, and a compound of formula I group. After culturing for 24 h, each group was tested for the change of glucose in the medium by using the glucose oxidase method.

normal mice = test: level of blood glucose in normal mice; type: in vivo, Kunming mouse; conditions: for Blood glucose 3 d after dosing: 5th administration; for Blood glucose 3 d after dosing / Blood glucose 10 d after dosing: fasting 2 h, X ± S; for Blood glucose 10 d after dosing: 19th administration; for effects in lowering glucose in normal mice: 5 mg/kg
Method: 40 male mice with a body weight of 21±1.8 g (Kunming mouse: SPF grade, male, provided by laboratory animal centre of Sichuan Academy of Chinese Medicine Sciences) were grouped into 4 groups randomly, which are control group, 5 mg/kg of the compound of formula I group, 5 mg/kg of the sodium salt of the compound of formula I group, and 25 mg/kg of Glibenclamide (manufactured by Tianjin Pacific Chemical & Pharmaceutical Co., LTD) group. For the control group, distilled water was given, while for other groups, corresponding medicaments were given. The medicament was intragastrically administered in 0.2 ml/10 g of administration volume twice daily. The administration was continued for 19 times. On the 5th time and 19th time and after thoroughly fasting for 2 h, the blood glucose value for each mouse was tested by a Blood Glucose Meter, and the results were recorded as follows: […]

β-TC3 cells = conditions: cited from earlier work
PI3K and GLUT-4 proteins = conditions: 1×10^−5M, P<0.05; cited from earlier work
InsR protein = conditions: 1×10^−5 mol/L; cited from earlier work
[1] = dissolution experiment (solubility in water); type: physicochemical; conditions: for amount of water necessarily for completely dissolving this product (1 g): 1 g of product; for solubility in water relative to 20-hydroxy-β-ecdysterone: fold of that of 20-hydroxy-β-ecdysterone
[2] = 25 mg/kg intragastrically twice daily, *P<0.05 vs control
[3] = 5 mg/kg intragastrically twice daily
[4] = 5 mg/kg intragastrically twice daily, *P<0.05 vs control

SMILES: CC(C)(O)CC[C@@H](O)[C@](C)(O)[C@H]1CC[C@@]2(O)C3=CC(=O)[C@@H]4C[C@@H](O)[C@@H](O)C[C@]4(C)[C@H]3CC[C@]12C [20-hydroxy-β-ecdysterone, reference compound]
- Glucose consumption (HepG2 cells; 2 × 10^−7 M): 1.45 ± 0.28 mM
- Glucose consumption increased (HepG2 cells; 2 × 10^−7 M): 0.13 mM
- Glucose consumption (HepG2 cells; 2 × 10^−8 M): 1.38 ± 0.11 mM
- Glucose consumption increased (HepG2 cells; 2 × 10^−8 M): 0.06 mM
- Glucose consumption (HepG2 cells; 2 × 10^−9 M): 1.30 ± 0.23 mM
- increase of the glucose consumption in HepG2 cells (HepG2 cells; concentration 2×10^−7˜2×10^−8 M): below 15%
- effect for lowering glucose in HepG2 cells (HepG2 cells; concentration 2×10^−9 M): no effect

SMILES: COc1ccc(Cl)cc1C(=O)NCCc1ccc(S(=O)(=O)NC(=O)NC2CCCCC2)cc1 [Glibenclamide, reference compound]
- Blood glucose 3 d after dosing (normal mice; [2]): 9.3 ± 0.9* mmol/L
- Blood glucose 10 d after dosing (normal mice; [2]): 9.9 ± 0.9* mmol/L

SMILES: CC(C)(O)CC[C@@H](O)[C@](C)(O)[C@H]1CC[C@@]2(O)C3=CC(=O)[C@@H]4C[C@@H](O)[C@@H](O)C[C@]4(C)[C@H]3CC[C@]12C [ecdysterone]
- stimulating insulin secretion of β-TC3 cells (β-TC3 cells): does not have the action of stimulating insulin secretion
- expression of PI3K and GLUT-4 proteins in insulin resistant HepG2 cells (PI3K and GLUT-4 proteins): increases
- expression of InsR protein in IR HepG2 cells (InsR protein): significantly increases

SMILES: CC(C)(O)CC[C@H]1OP(=O)(O)O[C@]1(C)[C@H]1CC[C@@]2(O)C3=CC(=O)[C@@H]4C[C@@H](O)[C@@H](O)C[C@]4(C)C3CC[C@]12C (some centres unmarked) [sodium salt of the compound of formula I]
- effects in lowering glucose in normal mice (normal mice): have the effects in lowering glucose
- Blood glucose 3 d after dosing (normal mice; [3]): 10.2 ± 1.9 mmol/L
- Blood glucose 10 d after dosing (normal mice; [4]): 9.8 ± 1.4* mmol/L
- amount of water necessarily for completely dissolving this product (1 g) [1]: 2.5 mL
- solubility in water relative to 20-hydroxy-β-ecdysterone [1]: 50 fold

SMILES: CC(C)(O)CC[C@H]1OP(=O)(O)O[C@]1(C)[C@H]1CC[C@@]2(O)C3=CC(=O)[C@@H]4C[C@@H](O)[C@@H](O)C[C@]4(C)C3CC[C@]12C (some centres unmarked) [the compound of formula I]
- effects in lowering glucose in normal mice (normal mice): have the effects in lowering glucose
- Blood glucose 3 d after dosing (normal mice; [3]): 10.4 ± 1.7 mmol/L
- Blood glucose 10 d after dosing (normal mice; [4]): 9.1 ± 2.3* mmol/L
- amount of water necessarily for completely dissolving this product (1 g) [1]: 12 mL
- solubility in water relative to 20-hydroxy-β-ecdysterone [1]: 10 fold
- Glucose consumption (HepG2 cells; 2 × 10^−7 M): 6.96 ± 0.23 mM
- Glucose consumption increased (HepG2 cells; 2 × 10^−7 M): 5.64 mM
- Glucose consumption (HepG2 cells; 2 × 10^−8 M): 6.51 ± 0.12 mM
- Glucose consumption increased (HepG2 cells; 2 × 10^−8 M): 5.19 mM
- Glucose consumption (HepG2 cells; 2 × 10^−9 M): 6.46 ± 0.19 mM
- Glucose consumption increased (HepG2 cells; 2 × 10^−9 M): 5.14 mM
- increase of the glucose consumption in HepG2 cells (HepG2 cells; concentration range 2×10^−7˜2×10^−9 M): above 500%

Reference: US8822441B2, “Ecdysterone synthesis derivative, preparation method and use thereof” (priority 2010, dated 2014)
